Literature values in US20210121480A1, “STABLE PHARMACEUTICAL COMPOSITIONS CONTAINING ESTRADIOL AND PROGESTERONE FOR ORAL ADMINISTRATION” (SLAYBACK PHARMA LLC, priority 2019, published 2021).
≈ marks a conversion by molar mass, not a printed value.

Details: reported

aqueous solubility: 7 ± 0 µg/mL (≈ 22.3 µM)
Structure (SMILES): CC(=O)[C@H]1CC[C@H]2[C@@H]3CCC4=CC(=O)CC[C@]4(C)[C@H]3CC[C@]12C [Progesterone]
